Source: ChEMBL document CHEMBL1201862, “PubChem BioAssay data set” (2004)
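Results reflect a 48-hour exposure of cells in 96-well plates to compound at five concentrations. GI50 marks 50% less growth.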 Active and inactive are the calls of the source. No stated cut-off is given here; in the data, active = GI50 up to about 1.1 µM and inactive = higher.

Assays:
Test in all cases: NCI anticancer screen, dose series, 48 h
IGROV-1 = test system: IGROV-1
HCC 2998 = test system: HCC 2998
MDA-MB-435 = test system: MDA-MB-435
EKVX = test system: EKVX
SK-OV-3 = test system: SK-OV-3
SW-620 = test system: SW-620
UACC-62 = test system: UACC-62
UO-31 = test system: UO-31
OVCAR-8 = test system: OVCAR-8
SNB-19 = test system: SNB-19
OVCAR-4 = test system: OVCAR-4
UACC-257 = test system: UACC-257
786-0 = test system: 786-0
T47D = test system: T47D
HOP-92 = test system: HOP-92
MDA-N = test system: MDA-N
NCI-H522 = test system: NCI-H522
CCRF-CEM = test system: CCRF-CEM
NCI-H226 = test system: NCI-H226
SK-MEL-28 = test system: SK-MEL-28
DU-145 = test system: DU-145
SK-MEL-5 = test system: SK-MEL-5
SR = test system: SR
MDA-MB-231 = test system: MDA-MB-231
Hs-578T = test system: Hs-578T
MCF7 = test system: MCF7
SN12C = test system: SN12C
Malme-3M = test system: Malme-3M
RXF 393 = test system: RXF 393
RPMI-8226 = test system: RPMI-8226
K562 = test system: K562
HT-29 = test system: HT-29
NCI/ADR-RES = test system: NCI/ADR-RES
NCI-H460 = test system: NCI-H460
HCT-116 = test system: HCT-116
HL-60 = test system: HL-60
ACHN = test system: ACHN
MOLT-4 = test system: MOLT-4
SF-268 = test system: SF-268
M14 = test system: M14
HCT-15 = test system: HCT-15
COLO 205 = test system: COLO 205
A549 = test system: A549
KM12 = test system: KM12
U-251 = test system: U-251
TK-10 = test system: TK-10
OVCAR-3 = test system: OVCAR-3
SNB-75 = test system: SNB-75
A498 = test system: A498
NCI-H23 = test system: NCI-H23
BT-549 = test system: BT-549
OVCAR-5 = test system: OVCAR-5
HOP-62 = test system: HOP-62
SK-MEL-2 = test system: SK-MEL-2
PC-3 = test system: PC-3
SF-539 = test system: SF-539
CAKI-1 = test system: CAKI-1
SF-295 = test system: SF-295
LOX IMVI = test system: LOX IMVI

Measured: GI50

CS(=O)(=O)c1ccc(/N=C/C=C/Nc2ccc(S(C)(=O)=O)cc2)cc1
inactive: IGROV-1 > 100 µM | HCC 2998 > 100 µM | MDA-MB-435 > 100 µM | EKVX > 100 µM | SK-OV-3 > 100 µM | SW-620 > 100 µM | UACC-62 > 100 µM | UO-31 > 100 µM | OVCAR-8 > 100 µM | SNB-19 > 100 µM | OVCAR-4 > 100 µM | UACC-257 > 100 µM | 786-0 > 100 µM | T47D > 100 µM | HOP-92 > 100 µM | MDA-N > 100 µM | NCI-H522 > 100 µM | CCRF-CEM > 100 µM | NCI-H226 > 100 µM | SK-MEL-28 > 100 µM | DU-145 > 100 µM | SK-MEL-5 > 100 µM | SR > 100 µM | MDA-MB-231 > 100 µM | Hs-578T > 100 µM | MCF7 > 100 µM | SN12C > 100 µM | Malme-3M > 100 µM | RXF 393 > 100 µM | RPMI-8226 > 100 µM | K562 > 100 µM | HT-29 > 100 µM | NCI/ADR-RES > 100 µM | NCI-H460 > 100 µM | HCT-116 > 100 µM | HL-60 > 100 µM | ACHN > 100 µM | MOLT-4 > 100 µM | SF-268 > 100 µM | M14 > 100 µM | COLO 205 > 100 µM | A549 > 100 µM | KM12 27.4 µM | U-251 > 100 µM | TK-10 > 100 µM | OVCAR-3 > 100 µM | SNB-75 > 100 µM | A498 > 100 µM | NCI-H23 > 100 µM | BT-549 > 100 µM | OVCAR-5 > 100 µM | HOP-62 > 100 µM | SK-MEL-2 > 100 µM | PC-3 > 100 µM | SF-539 > 100 µM | CAKI-1 > 100 µM | SF-295 > 100 µM
> 100 µM: HCT-15

COC(=O)c1c(O)ccc2[nH]c3c(O)c4ccccc4cc3c12
20.5 µM: HCT-15
inactive: IGROV-1 16.7 µM | HCC 2998 13.9 µM | MDA-MB-435 27.9 µM | EKVX 16.8 µM | SK-OV-3 33.6 µM | UACC-62 61.4 µM | UO-31 26.8 µM | OVCAR-8 20.2 µM | SNB-19 41.7 µM | OVCAR-4 25.5 µM | UACC-257 34.1 µM | 786-0 32 µM | T47D 15.1 µM | HOP-92 29.6 µM | MDA-N 28.4 µM | NCI-H522 32 µM | CCRF-CEM 20.8 µM | NCI-H226 65.8 µM | SK-MEL-28 35 µM | DU-145 20 µM | SK-MEL-5 24 µM | SR 43.5 µM | MDA-MB-231 75 µM | Hs-578T 23.7 µM | MCF7 16 µM | SN12C 43.6 µM | Malme-3M 20.2 µM | RXF 393 31.3 µM | RPMI-8226 17.4 µM | K562 47 µM | HT-29 33.3 µM | NCI/ADR-RES 29.9 µM | NCI-H460 24.1 µM | HCT-116 16.7 µM | HL-60 14.1 µM | ACHN 27.9 µM | MOLT-4 37.2 µM | SF-268 21.9 µM | M14 30.2 µM | COLO 205 18.3 µM | A549 32.2 µM | KM12 16 µM | U-251 36.5 µM | TK-10 34.2 µM | OVCAR-3 15.9 µM | A498 41.4 µM | NCI-H23 23 µM | BT-549 39.3 µM | OVCAR-5 76.9 µM | HOP-62 22.4 µM | SK-MEL-2 32.4 µM | PC-3 30.4 µM | SF-539 21.4 µM | CAKI-1 18.5 µM | SF-295 18.9 µM

C#CCSC(C=C=C)P(=O)(OC(C)C)OC(C)C (stereo unspecified)
inactive: IGROV-1 45.7 µM | HCC 2998 28.4 µM | MDA-MB-435 > 100 µM | EKVX > 100 µM | SK-OV-3 > 100 µM | SW-620 37.4 µM | UACC-62 > 100 µM | UO-31 > 100 µM | OVCAR-8 > 100 µM | SNB-19 > 100 µM | OVCAR-4 > 100 µM | UACC-257 > 100 µM | 786-0 46.2 µM | T47D > 100 µM | HOP-92 > 100 µM | MDA-N > 100 µM | NCI-H522 23.3 µM | NCI-H226 > 100 µM | SK-MEL-28 > 100 µM | DU-145 > 100 µM | SK-MEL-5 > 100 µM | SR 39.5 µM | MDA-MB-231 > 100 µM | Hs-578T 12.9 µM | MCF7 33.7 µM | SN12C 32.4 µM | Malme-3M 31.4 µM | RXF 393 > 100 µM | RPMI-8226 30.3 µM | K562 23.7 µM | HT-29 33 µM | NCI/ADR-RES > 100 µM | NCI-H460 > 100 µM | LOX IMVI > 100 µM | HCT-116 27 µM | HL-60 38.1 µM | ACHN 42.8 µM | MOLT-4 21.5 µM | SF-268 90.8 µM | M14 > 100 µM | COLO 205 58.5 µM | A549 > 100 µM | KM12 > 100 µM | U-251 > 100 µM | TK-10 43.2 µM | OVCAR-3 > 100 µM | SNB-75 > 100 µM | A498 36.8 µM | NCI-H23 > 100 µM | BT-549 26.4 µM | OVCAR-5 > 100 µM | HOP-62 > 100 µM | SK-MEL-2 > 100 µM | PC-3 > 100 µM | CAKI-1 > 100 µM | SF-295 > 100 µM
30.5 µM: HCT-15

CCC/C(Cl)=N/OC(=O)Nc1cccc(F)c1
1.85 µM: HCT-15
inactive: IGROV-1 13.2 µM | HCC 2998 15.6 µM | MDA-MB-435 11.9 µM | EKVX 2.46 µM | SK-OV-3 17.3 µM | SW-620 1.8 µM | UACC-62 14.4 µM | UO-31 8.97 µM | OVCAR-8 16 µM | SNB-19 17.9 µM | OVCAR-4 9.79 µM | UACC-257 14.8 µM | 786-0 1.69 µM | T47D 2.71 µM | HOP-92 1.6 µM | MDA-N 9.46 µM | NCI-H226 14.6 µM | SK-MEL-28 5.12 µM | DU-145 17.5 µM | SK-MEL-5 5.79 µM | MDA-MB-231 13.1 µM | Hs-578T 9.75 µM | MCF7 2.77 µM | SN12C 6.75 µM | Malme-3M 1.73 µM | RXF 393 3.23 µM | RPMI-8226 1.96 µM | HT-29 4.91 µM | NCI/ADR-RES 6.04 µM | NCI-H460 19 µM | LOX IMVI 1.91 µM | HCT-116 4.19 µM | HL-60 1.28 µM | ACHN 1.55 µM | MOLT-4 1.89 µM | SF-268 21.7 µM | M14 3.94 µM | COLO 205 2.19 µM | A549 19.1 µM | KM12 15.7 µM | U-251 17.3 µM | TK-10 2.38 µM | OVCAR-3 2.61 µM | SNB-75 3.4 µM | A498 > 10 µM | NCI-H23 16.7 µM | BT-549 2.32 µM | OVCAR-5 19.1 µM | HOP-62 16.4 µM | SK-MEL-2 18.7 µM | PC-3 17 µM | CAKI-1 3.33 µM | SF-295 17.5 µM
active: NCI-H522 0.309 µM | CCRF-CEM 0.526 µM | SR 0.453 µM | K562 1.08 µM

CN(C)c1nc2sc3c(c2c(=O)o1)CCCC3
33.3 µM: HCT-15
inactive: IGROV-1 72.8 µM | HCC 2998 > 100 µM | MDA-MB-435 31.5 µM | EKVX 25.5 µM | SK-OV-3 31.6 µM | SW-620 54.8 µM | UACC-62 41.8 µM | UO-31 7.46 µM | OVCAR-8 31.8 µM | SNB-19 25.6 µM | OVCAR-4 27.9 µM | UACC-257 73.8 µM | 786-0 45.4 µM | T47D 26.8 µM | HOP-92 36.9 µM | MDA-N 38.2 µM | NCI-H522 25.4 µM | CCRF-CEM 39.4 µM | NCI-H226 15.3 µM | SK-MEL-28 71.3 µM | DU-145 27.8 µM | SK-MEL-5 23.8 µM | SR 65.2 µM | MDA-MB-231 41.5 µM | Hs-578T 16.7 µM | MCF7 48.3 µM | SN12C 36.9 µM | Malme-3M 25.9 µM | RXF 393 15.5 µM | RPMI-8226 35.8 µM | K562 32.4 µM | HT-29 21 µM | NCI/ADR-RES 43 µM | NCI-H460 44.5 µM | LOX IMVI 52 µM | HCT-116 44.9 µM | HL-60 27 µM | ACHN 34.1 µM | MOLT-4 52.2 µM | M14 40.1 µM | COLO 205 23.6 µM | A549 29.2 µM | KM12 21.6 µM | U-251 32.7 µM | TK-10 > 100 µM | SNB-75 30.1 µM | A498 16 µM | NCI-H23 46.3 µM | BT-549 12.3 µM | OVCAR-5 60.1 µM | HOP-62 25.6 µM | SK-MEL-2 25.3 µM | PC-3 34.4 µM | SF-539 43.3 µM | CAKI-1 35.3 µM | SF-295 31.6 µM
